Data taken from US20140303092A1 (CHIMERIX, INC., priority 2011, published 2014).

Experiment: Study HDP-CDV-201: safety and tolerability (adverse events, laboratory abnormalities, discontinuations)
Assay type: in vivo, human (adult allogeneic HSCT recipients)
Conditions: for Subjects with Neutrophils <0.5 GI/L / Subjects with Neutrophils <1.0-0.5 GI/L / Subjects with Neutrophils <1.5-1 GI/L / Subjects with Neutrophils <LLN-1.5 GI/L / Subjects with Platelets <25 GI/L / Subjects with Platelets <50-25 GI/L / Subjects with Platelets <75-50 GI/L / Subjects with Platelets <LLN-75 GI/L / Subjects with Serum Creatinine >1 × ULN-[…] ULN / Subjects with Serum Creatinine >3 × ULN-6 × ULN / Subjects with Serum Creatinine >6 × ULN / Subjects with Serum Creatinine >[…] ULN-3 × ULN / Subjects with WBC <1 GI/L / Subjects with WBC <2-1 GI/L / Subjects with WBC <3-2 GI/L / Subjects with WBC <LLN-3 GI/L / Subjects with Hemoglobin <6.5 g/dL / Subjects with Hemoglobin <8-6.5 g/dL / Subjects with Hemoglobin <10-8 g/dL / Subjects with Hemoglobin <LLN-10 g/dL: any time during therapy; for Subjects Receiving Aldesleukin / Subjects Receiving Blood and Related Products / Subjects Receiving Blood, Whole / Subjects Receiving Filgrastim / Subjects Receiving Granulocyte Colony Stimulating Factor / Subjects Receiving Pegfilgrastim / Subjects Receiving Platelets / Subjects Receiving Red Blood Cells / Subjects Receiving Red Blood Cells, Concentrated / Subjects Receiving Sargramostim: during the Treatment Period; for Cause of death: individual subjects who died
Description: Clinical Studies of HDP-CDV were performed and described in detail in the following Examples. For example, HDP-CDV-201 is a placebo-controlled, dose-escalating trial in HSCT CMV (R+) recipients, evaluating the ability of HDP-CDV to prevent or control CMV infection was carried out. Five cohorts were established in which participants or subjects received either placebo or the HDP-CDV orally, in doses ranging from 40 mg weekly (QW) to 200 mg twice weekly (BIW). Subjects who were post-HSCT were enrolled at the time of engraftment and randomized to HDP-CDV or placebo (3 to 1 ratio) and received blinded therapy until approximately 100 day post-transplantation. HDP-CDV doses were 40 mg QW, 100 mg QW, 200 mg QW, 200 mg BIW and 100 mg BIW. Escalation to the next dose was decided by the data monitoring committee after review of the safety data from the previous Cohort. Subjects who developed CMV disease or CMV infection requiring pre-emptive therapy with local standard of care were discontinued from blinded therapy and followed for 4 weeks. Subjects who completed treatment with blinded therapy were followed for 8 weeks post-therapy.
Data from Study HDP-CDV-201 also provided characterization of the safety and tolerability profile of HDP-CDV when administered for the prevention or control of CMV infection in high risk (R^+) post-HSCT adult subjects.
The Safety population (SAFETY) included all randomized subjects who took at least one dose of study treatment. This population was used to summarize safety outcomes based on the treatment actually received, in cases where a subject was treated contrary to the randomization schedule.
The safety and tolerability profile of HDP-CDV, including subject demographics and Baseline characteristics; the AE profile; and laboratory abnormalities of interest were analyzed in the cohorts followed in this investigation.
Subjects completing the treatment period received a full course of study medication; those completing the entire study attended visits through 8 weeks of follow up. Subjects who discontinued treatment may have done so for protocol specified reasons (e.g. development of clinically significant CMV infection requiring preemptive treatment with excluded anti-CMV medications) or for other reasons (e.g., withdrawal, adverse events, loss to follow-up). The disposition of subjects in Study HDP-CDV-201 during the double-blind, placebo-controlled treatment period (through Week 11) is listed by dosing Cohort in TABLE 23.
Adverse events were examined by severity to ensure that all safety signals were identified in this study population. Because of the frequency of events in HSCT recipients, particular attention was given to evaluation of Grade 3 […], 4 (severe), and 5 (fatal) adverse events.
Only those preferred terms for which at least one Grade 3 or higher event was experienced in any treatment group are listed. Cytomegalovirus-related AEs are excluded from this analysis.
HDP-CDV is a lipid conjugate of CDV. Because CDV is known to have adverse effects on renal function and bone marrow, decreased GFR and persistent neutropenia were identified as AEs of special interest. Key renal and hematological (TABLE 30) laboratory parameters were measured and listed below by Study HDP-CDV-201 treatment groups. TABLE 30 includes abnormal levels of serum creatinine, neutrophils, platelets, WBCs, and hemoglobin and includes data at Screening and during the treatment period.
A common metric for unit based dosing of medications is by weight (mg/kg). When the distribution of weights was examined for all subjects participating in the study, the median was 78 kg and the lower 25th percentile weight was approximately 65 kg, which translates to a cut-off of ˜3 mg/kg for a 200 mg total weekly dose. Based upon this approach, a cut-off of 3 mg/kg was used to assess the frequency of diarrhea and associated GI AEs reported for the subjects in Cohorts 3 or 4a (TABLE 40).

## CCCCCCCCCCCCCCCCOCCCOP(=O)(O)COC(CO)Cn1ccc(N)nc1=O (stereo not shown) [HDP-CDV]
100 mg QW
  Subjects with Neutrophils <0.5 GI/L: 3 (11.1%)
  Subjects with Neutrophils <1.0-0.5 GI/L: 2 (7.4%)
  Subjects with Neutrophils <1.5-1 GI/L: 9 (33.3%)
  Subjects with Neutrophils <LLN-1.5 GI/L: 1 (3.7%)
  Subjects with Platelets <25 GI/L: 4 (14.8%)
  Subjects with Platelets <50-25 GI/L: 6 (22.2%)
  Subjects with Platelets <75-50 GI/L: 6 (22.2%)
  Subjects with Platelets <LLN-75 GI/L: 7 (25.9%)
  Subjects with Serum Creatinine >1 × ULN-[…] ULN: 16 (59.3%)
  Subjects with Serum Creatinine >3 × ULN-6 × ULN: 0
  Subjects with Serum Creatinine >6 × ULN: 0
  Subjects with Serum Creatinine >[…] ULN-3 × ULN: 5 (18.5%)
  Subjects with WBC <1 GI/L: 3 (11.1%)
  Subjects with WBC <2-1 GI/L: 4 (14.8%)
  Subjects with WBC <3-2 GI/L: 6 (22.2%)
  Subjects with WBC <LLN-3 GI/L: 4 (14.8%)
  Subjects Receiving Aldesleukin: 0
  Subjects Receiving Blood and Related Products: 0
  Subjects Receiving Blood, Whole: 1 (3.7%)
  Subjects Receiving Filgrastim: 4 (14.8%)
  Subjects Receiving Granulocyte Colony Stimulating Factor: 0
  Subjects Receiving Pegfilgrastim: 0
  Subjects Receiving Platelets: 3 (11.1%)
  Subjects Receiving Red Blood Cells: 2 (7.4%)
  Subjects Receiving Red Blood Cells, Concentrated: 3 (11.1%)
  Subjects Receiving Sargramostim: 0
200 mg BIW
  Subjects with Hemoglobin <6.5 g/dL: 0
  Subjects with Hemoglobin <8-6.5 g/dL: 2 (7.1%)
  Subjects with Hemoglobin <10-8 g/dL: 12 (42.9%)
  Subjects with Hemoglobin <LLN-10 g/dL: 12 (42.9%)
  Subjects with Neutrophils <0.5 GI/L: 0
  Subjects with Neutrophils <1.0-0.5 GI/L: 4 (14.3%)
  Subjects with Neutrophils <1.5-1 GI/L: 7 (25.0%)
  Subjects with Neutrophils <LLN-1.5 GI/L: 3 (10.7%)
  Subjects with Platelets <25 GI/L: 8 (28.6%)
  Subjects with Platelets <50-25 GI/L: 8 (28.6%)
  Subjects with Platelets <75-50 GI/L: 2 (7.1%)
  Subjects with Platelets <LLN-75 GI/L: 6 (21.4%)
  Subjects with Serum Creatinine >1 × ULN-[…] ULN: 11 (37.9%)
  Subjects with Serum Creatinine >3 × ULN-6 × ULN: 0
  Subjects with Serum Creatinine >6 × ULN: 0
  Subjects with Serum Creatinine >[…] ULN-3 × ULN: 1 (3.4%)
  Subjects with WBC <1 GI/L: 2 (7.1%)
  Subjects with WBC <2-1 GI/L: 5 (17.9%)
  Subjects with WBC <3-2 GI/L: 9 (32.1%)
  Subjects with WBC <LLN-3 GI/L: 3 (10.7%)
  Subjects Receiving Aldesleukin: 0
  Subjects Receiving Blood and Related Products: 0
  Subjects Receiving Blood, Whole: 0
  Subjects Receiving Filgrastim: 5 (16.7%)
  Subjects Receiving Granulocyte Colony Stimulating Factor: 1 (3.3%)
  Subjects Receiving Pegfilgrastim: 1 (3.3%)
  Subjects Receiving Platelets: 6 (20.0%)
  Subjects Receiving Red Blood Cells: 4 (13.3%)
  Subjects Receiving Red Blood Cells, Concentrated: 5 (16.7%)
  Subjects Receiving Sargramostim: 0
200 mg QW
  Subjects with Hemoglobin <6.5 g/dL: 0
  Subjects with Hemoglobin <8-6.5 g/dL: 5 (13.2%)
  Subjects with Hemoglobin <10-8 g/dL: 19 (50.0%)
  Subjects with Hemoglobin <LLN-10 g/dL: 13 (34.2%)
  Subjects with Neutrophils <0.5 GI/L: 2 (5.3%)
  Subjects with Neutrophils <1.0-0.5 GI/L: 7 (18.4%)
  Subjects with Neutrophils <1.5-1 GI/L: 11 (28.9%)
  Subjects with Neutrophils <LLN-1.5 GI/L: 1 (2.6%)
  Subjects with Platelets <25 GI/L: 7 (18.4%)
  Subjects with Platelets <50-25 GI/L: 13 (34.2%)
  Subjects with Platelets <75-50 GI/L: 7 (18.4%)
  Subjects with Platelets <LLN-75 GI/L: 7 (18.4%)
  Subjects with Serum Creatinine >1 × ULN-[…] ULN: 16 (42.1%)
  Subjects with Serum Creatinine >3 × ULN-6 × ULN: 0
  Subjects with Serum Creatinine >6 × ULN: 0
  Subjects with Serum Creatinine >[…] ULN-3 × ULN: 2 (5.3%)
  Subjects with WBC <1 GI/L: 1 (2.6%)
  Subjects with WBC <2-1 GI/L: 13 (34.2%)
  Subjects with WBC <3-2 GI/L: 7 (18.4%)
  Subjects with WBC <LLN-3 GI/L: 6 (15.8%)
  Subjects Receiving Aldesleukin: 0
  Subjects Receiving Blood and Related Products: 0
  Subjects Receiving Blood, Whole: 0
  Subjects Receiving Filgrastim: 11 (28.2%)
  Subjects Receiving Granulocyte Colony Stimulating Factor: 1 (2.6%)
  Subjects Receiving Pegfilgrastim: 1 (2.6%)
  Subjects Receiving Platelets: 6 (15.4%)
  Subjects Receiving Red Blood Cells: 3 (7.7%)
  Subjects Receiving Red Blood Cells, Concentrated: 6 (15.4%)
  Subjects Receiving Sargramostim: 1 (2.6%)
Course of the study
  drug induced liver injury (DILI): No case of drug induced liver injury (DILI) clearly attributable to HDP-CDV
40 mg QW
  Subjects Receiving Aldesleukin: 0
  Subjects Receiving Blood and Related Products: 1 (4.0%)
  Subjects Receiving Blood, Whole: 0
  Subjects Receiving Filgrastim: 4 (16.0%)
  Subjects Receiving Granulocyte Colony Stimulating Factor: 0
  Subjects Receiving Pegfilgrastim: 0
  Subjects Receiving Platelets: 5 (20.0%)
  Subjects Receiving Red Blood Cells: 0
  Subjects Receiving Red Blood Cells, Concentrated: 2 (8.0%)
  Subjects Receiving Sargramostim: 0
100 mg BIW
  Subjects Receiving Aldesleukin: 0
  Subjects Receiving Blood and Related Products: 0
  Subjects Receiving Blood, Whole: 0
  Subjects Receiving Filgrastim: 11 (22.0%)
  Subjects Receiving Granulocyte Colony Stimulating Factor: 0
  Subjects Receiving Pegfilgrastim: 2 (4.0%)
  Subjects Receiving Platelets: 6 (12.0%)
  Subjects Receiving Red Blood Cells: 3 (6.0%)
  Subjects Receiving Red Blood Cells, Concentrated: 6 (12.0%)
  Subjects Receiving Sargramostim: 0
Entire study duration
  relation of deaths to study drug: None of the deaths were considered by the Investigators as related to HDP-CDV
Dose 100 mg BIW
  Cause of death: Gut GVHD
Dose 200 mg BIW
  Cause of death: GI bleed
Range across cohorts
  average increase in ALT from Baseline at time of maximum ALT increase: 1.53 to 3.55 fold
Regardless of dose and dosing frequency
  nephrotoxicity or myelotoxicity: no indication of nephrotoxicity or myelotoxicity
